Measured values from patent publication US12582720B2, “Compound for preventing or treating lipid metabolism-related diseases” (Fudan University, priority 2020, dated 2026).

Legend:
[1] = system: lipid droplets in SH-SY5Y cells; test: Reduction of OA-induced lipid droplets in SH-SY5Y cells; format: cell-based, human; details: unconjugated compound 5 μM
Description: The reduction of lipid droplets in SH-SY5Y cells by Compound 1A and Compound 2A was detected by a method that was similar to Example 2, and the result was shown in FIG. 18.
The effects of unconjugated LC3 binding Compound A1, A5 and unconjugated lipid droplet probe ORBB […] respectively on lipid droplets in SH-SY5Y cells (FIG. 20A) and MEF cells (FIG. 20B) were detected by a method similar to Example 2.

db/db mice = test: Effect of the compound on db/db mouse; format: in vivo; details: 30 mg/kg ip, 8 mice per group
Description: Experimental animals: nineteen-week-old db/db male mice (C57BL/6J-Lepr^db/Lepr^db) were obtained from Shanghai Model Organisms Co., Ltd., and acclimatized for at least 1 week before experiments. The mice had ad libitum access to standard chow and water.
Normal control: The C57BL/6 male mice fed on standard irradiated chow diet (Shuyishuer Inc. cat. no. D12450J) from Changzhou Shuyishuer Biotechnology Co., Ltd. (Shuyishuer Inc.) were used as the normal control.
Mice were randomly divided into 7 groups, wherein 8 mice in each group, and the mice in each group were subjected to intraperitoneal injection to administer: (1) only vehicle (no DMSO) group: 0% DMSO+39% PEG300 (Selleck, cat. no. S6704)+5% Tween-80 (Selleck, cat. no. S6702)+56% distilled water, (2) DMSO group: 1% DMSO+39% PEG300+5% Tween-80+55% H2O (DMSO vehicle), (3) C3 group: Compound 3A was in DMSO vehicle, (4) C4 group: Compound 4A in DMSO vehicle, (5) SIII group: Sudan III DMSO vehicle, (6) GW5074 group: Compound A1 in DMSO vehicle, (7) DP group: Compound A5 in DMSO vehicle. For groups (3)-(7), the compound (30 mg/kg, administration volume 150 μL) was administered through intraperitoneally injection for consecutive 2 weeks, and once a day. The food and water intake were measured with an analytical electronic balance.
Bodyweight was weighed every day.
If time permitted, tail vein blood (30-50 μL) was collected every 1-3 days.
24 hours after the time point of the last injection, end point maxillary surface blood sampling was performed on each mouse. All mice were Euthanized by cervical dislocation, and then tissue sample (e.g., liver samples) were obtained and stored in Eppendorf tubes at −80° C. for assay.
12 days after initiation of administration, each mouse was scanned by a minispec nuclear magnetic resonance (NMR) instrument (Bruker LF50 II “Minispec” body composition analyzer, Bruker Optics) that was designed for experimental animals, and based on the measurement of solid and liquid parts of the samples, the body fat and lean body weight were determined by this device.
Serum: Tail vein blood samples (30-50 μL) were left to coagulate in […] blood collection tubes (Jiangsu Kangjian Medical Products Co., Ltd., model KJ002) at room temperature without interference, and then centrifuged at 2,000×g for 10 minutes at 4° C. to remove the clot. Supernatant was collected to obtain the serum.
Liver: Liver samples were obtained as described in (2). 100 mg of liver tissue was homogenized in 0.9 mL of absolute alcohol under ice-cold conditions, and then centrifuged (2,500 r.p.m/min, 10 min). Supernatant was collected, and then stored at −80° C.
The kits were used according to the instruction from manufacturer (TAG: TG kit, cat. no. A110-1-1; TC: T-CHO kit, cat. no. A111-1. FFA: NEFA kit, cat. No. A042-2-1; they were all from Nanjing Jiancheng Bioengineering Institute). TAG, TC and FFA levels in serum and liver samples were determined.
According to the lipidomic method as described above, the contents of liver total lipid, glycerolipid, sterol lipid, neutral sphingolipid and polar lipid were analyzed. The log 2-fold change (log2 FC) and statistical significance (p-value) relative to the DMSO group were calculated.

[2] = system: autophagosome-lipid droplet colocalization in MEF cells; test: Colocalization of autophagosome and lipid droplets in mCherry-LC3B transfected MEF cells; format: cell-based, mouse; details: 5 μM, 3 h, compared to DMSO control
How it was run: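 mCherry-LC3B expressed in MEF cells by plasmid transfection; lipid droplets induced with OA at 30 h post-transfection, compound added 6 h later for 3 h. Cells fixed, stained with BODIPY and DAPI, and LC3 puncta around lipid droplets imaged by confocal microscopy.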

[3] = system: lipid droplets in 3T3-L1 fat precursor cell differentiated fat cells; test: Lipid droplets in 3T3-L1 fat precursor cell differentiated fat cells; format: cell-based, mouse; details: 3T3-L1 differentiated fat cells, 5 μM, 24 h
LC3 = LC3 (Homo sapiens, UniProt Q9GZQ8); details: reported by Li et al., Nature 575, 203-209 (2019); cited from earlier work

For `O=C1Nc2ccc(I)cc2C1=Cc1cc(Br)c(O)c(Br)c1` [Compound A1, 3-(3,5-dibromo-4-hydroxylbenzylidene)-5-iodoindolin-2-one, reference compound], the “lipid droplets (number and size)” value [1] was “did not significantly decrease or become smaller”, the “mice died in the experiment” value (db/db mice) was “One mouse” and the “ratio of colocalization of red and green aggregation point (autophagosome-lipid droplet)” value [2] was “No such effect”. The “amount/size of lipid droplets” value [3] was “no significant effect” and the “binding to LC3” value (LC3) was “can bind to LC3 with affinity”.
